Measurements reported in ChEMBL document CHEMBL3352411, “Structure-activity relationships (SAR) and structure-kinetic relationships (SKR) of bicyclic heteroaromatic acetic acids as potent CRTh2 antagonists II: lead optimization” (Bioorg Med Chem Lett, 2014).
Each block holds one compound with its values, some of them ahead of it.

Tests used:
[1] = target: T1, Prostaglandin D2 receptor 2 (Homo sapiens, UniProt Q9Y5Y4); test: Antagonist activity at CRTh2 receptor (unknown origin) overexpressed in CHOK1 cell membranes assessed as inhibition of [35S]-GTPgammaS binding measured after 2 hrs by liquid scintillation counting analysis; format: functional, CHO-K1
T1 sequence (Q9Y5Y4 whole entry): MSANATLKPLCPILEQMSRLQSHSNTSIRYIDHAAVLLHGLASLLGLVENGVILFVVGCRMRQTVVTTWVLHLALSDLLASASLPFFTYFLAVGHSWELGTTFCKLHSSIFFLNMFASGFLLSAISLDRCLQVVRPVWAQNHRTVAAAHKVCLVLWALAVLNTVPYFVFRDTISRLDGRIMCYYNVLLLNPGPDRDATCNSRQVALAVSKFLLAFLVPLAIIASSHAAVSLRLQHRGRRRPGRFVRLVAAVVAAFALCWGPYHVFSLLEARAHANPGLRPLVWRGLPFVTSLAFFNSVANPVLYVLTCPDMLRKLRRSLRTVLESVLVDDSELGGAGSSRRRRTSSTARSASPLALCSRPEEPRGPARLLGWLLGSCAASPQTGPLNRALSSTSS

[2] = target: T2, Prostaglandin D2 receptor 2 (Homo sapiens) (UniProt Q9Y5Y4); test: Binding affinity to CRTh2 receptor (unknown origin) overexpressed in CHOK1 cell membranes assessed as dissociation half life at 10 times IC50 concentration preincubated for 1 hr with 0.1 nM to 100 uM PGD2 and [35S]-GTPgammaS by liquid scintillation counting analysis; format: functional; settings: CHO-K1
T2 sequence (whole entry): T1 sequence (Q9Y5Y4 whole entry)

[3] = Terminal half life in Wistar rat at 1 mg/kg, iv; format: ADME, organism-based; parameters: dose 1 mg/kg, route intravenous; settings: in vivo, read-out: beta t1/2 (converted)
[4] = Cmax in Wistar rat at 1 mg/kg, iv; format: ADME, organism-based; parameters: dose 1 mg/kg, route intravenous; settings: in vivo
[5] = Clearance in Wistar rat at 1 mg/kg, iv; format: ADME, organism-based; parameters: dose 1 mg/kg, route intravenous; settings: in vivo
[6] = AUC (0 to infinity) in Wistar rat at 1 mg/kg, iv; format: ADME, organism-based; parameters: time infinity, dose 1 mg/kg, route intravenous; settings: plasma
[7] = Volume of distribution at steady state in Wistar rat at 1 mg/kg, iv; format: ADME, organism-based; parameters: dose 1 mg/kg, route intravenous; settings: in vivo, read-out: Vdss
[8] = Mean residence time in Wistar rat at 1 mg/kg, iv; format: ADME, organism-based; parameters: dose 1 mg/kg, route intravenous; settings: in vivo
[9] = Oral bioavailability in Wistar rat at 10 mg/kg; format: ADME, organism-based; settings: in vivo

Structure (SMILES): CCN(Cc1cc(S(C)(=O)=O)ccc1-n1cc(CC(=O)O)c2ccc(C)nc21)C(=O)C1CC1
IC50 [1]: 40 nM

Structure (SMILES): CCN(Cc1cc(C(F)(F)F)ccc1-c1nn(CC(=O)O)c2ccc(Cl)cc12)C(=O)C1CC1
T1/2 [2]: 2.8 h

Structure (SMILES): CCN(Cc1cc(C(F)(F)F)ccc1-c1nn(CC(=O)O)c2ccc(Cl)c(F)c12)C(=O)C1CC1
IC50 [1]: 15 nM | T1/2 [2]: 10.5 h

Structure (SMILES): CCN(Cc1cc(C(F)(F)F)ccc1-c1nn(CC(=O)O)c2ccc(F)cc12)C(=O)C1CC1
T1/2 [2]: 1.4 h

Structure (SMILES): CCN(Cc1cc(C(F)(F)F)ccc1-c1cc(CC(=O)O)n2cccnc12)C(=O)C1CC1
T1/2 [2]: 2 h | half-life [3]: 4.6 h | Cmax [4]: 910 ng/mL | clearance [5]: 26 mL/min/kg | AUC(0-inf) [6]: 639 ng·h/mL | Vd [7]: 4.2 L/kg | MRT [8]: 2.6 h

Structure (SMILES): CCN(Cc1cc(C(F)(F)F)ccc1-c1nn(CC(=O)O)c2cccc(C)c12)C(=O)C1CC1
T1/2 [2]: 2.3 h

Structure (SMILES): Cc1ccc2c(CC(=O)O)cn(-c3ccc(C(F)(F)F)cc3CN(CCO)C(=O)C3CC3)c2n1
IC50 [1]: 14 nM | T1/2 [2]: 7.8 h

Structure (SMILES): CCN(Cc1cc(C(F)(F)F)ccc1-n1cc(CC(=O)O)c2ccc(C3CC3)nc21)C(=O)C1CC1
IC50 [1]: 49 nM | T1/2 [2]: 5.4 h

Structure (SMILES): CCN(Cc1cc(C(F)(F)F)ccc1-c1nn(CC(=O)O)c2ccc(F)c(Cl)c12)C(=O)C1CC1
T1/2 [2]: 3.3 h

Structure (SMILES): CCN(Cc1cc(C(F)(F)F)ccc1-n1cc(CC(=O)O)c2ccccc21)C(=O)C1CC1
T1/2 [2]: 2.5 h

Structure (SMILES): CCN(Cc1cc(F)ccc1-n1cc(CC(=O)O)c2cccnc21)C(=O)C1CC1
T1/2 [2]: 1.3 h

Structure (SMILES): CCN(Cc1cc(C(F)(F)F)ccc1-n1cc(CC(=O)O)c2cccnc21)C(=O)C1CC1
T1/2 [2]: 2.3 h

Structure (SMILES): CCN(Cc1cc(F)ccc1-c1cn(CC(=O)O)c2ccccc12)C(=O)C1CC1
T1/2 [2]: 2 h | half-life [3]: 1.9 h | Cmax [4]: 431 ng/mL | clearance [5]: 76 mL/min/kg | AUC(0-inf) [6]: 222 ng·h/mL | Vd [7]: 5.4 L/kg | MRT [8]: 1.2 h

Structure (SMILES): Cc1ccc2c(CC(=O)O)cn(-c3ccc(C(F)(F)F)cc3CN(C(=O)C3CC3)C(C)C)c2n1
IC50 [1]: 28 nM | T1/2 [2]: 9.2 h

Structure (SMILES): CCN(Cc1cc(C(F)(F)F)ccc1-n1cc(CC(=O)O)c2ccc(OC)nc21)C(=O)C1CC1
IC50 [1]: 135 nM

Structure (SMILES): CCN(Cc1cc(C(F)(F)F)ccc1-n1cc(CC(=O)O)c2ccc(C)nc21)C(=O)c1ccccn1
IC50 [1]: 97 nM

Structure (SMILES): CCN(Cc1cc(C(F)(F)F)ccc1-n1cc(CC(=O)O)c2ccc(C)nc21)C(C)=O
T1/2 [2]: 6.4 h

Structure (SMILES): CCN(Cc1cc(C(F)(F)F)ccc1-c1nn(CC(=O)O)c2ccccc12)C(=O)C1CC1
IC50 [1]: 19 nM

Structure (SMILES): Cc1ccc2c(CC(=O)O)cn(-c3ccc(C(F)(F)F)cc3CN(CC3CC3)C(=O)C3CC3)c2n1
IC50 [1]: 11 nM | T1/2 [2]: 32 h

Structure (SMILES): CCN(Cc1cc(C(F)(F)F)ccc1-n1cc(CC(=O)O)c2ccc(C)nc21)C(=O)CN(C)C
IC50 [1]: 163 nM

Structure (SMILES): CCN(Cc1cc(C(F)(F)F)ccc1-c1cn(CC(=O)O)c2ccc(C)nc12)C(=O)C1CC1
IC50 [1]: 17 nM | T1/2 [2]: 21 h | half-life [3]: 0.5 h | Cmax [4]: 366 ng/mL | clearance [5]: 134 mL/min/kg | AUC(0-inf) [6]: 126 ng·h/mL | Vd [7]: 2.7 L/kg | MRT [8]: 0.3 h

Structure (SMILES): CCN(Cc1cc(C(F)(F)F)ccc1-c1cc(CC(=O)O)n2ccc(C)nc12)C(=O)C1CC1
T1/2 [2]: 19 h

Structure (SMILES): CCN(Cc1ccccc1-n1cc(CC(=O)O)c2ccc(C)nc21)C(=O)C1CC1
T1/2 [2]: 8.8 h

Structure (SMILES): CCN(Cc1cc(C(F)(F)F)ccc1-n1cc(CC(=O)O)c2ccc(C(F)(F)F)nc21)C(=O)C1CC1
IC50 [1]: 54 nM

Structure (SMILES): CCN(Cc1cc(C(F)(F)F)ccc1-c1cn(CC(=O)O)c2ccc(C(F)(F)F)nc12)C(=O)C1CC1
IC50 [1]: 15 nM | T1/2 [2]: 25 h

Structure (SMILES): CCN(Cc1cc(F)ccc1-c1cn(CC(=O)O)c2ccc(C(F)(F)F)cc12)C(=O)C1CC1
IC50 [1]: 14 nM | T1/2 [2]: 20 h

Structure (SMILES): CCN(Cc1cc(C(F)(F)F)ccc1-c1nn(CC(=O)O)c2cccc(C#N)c12)C(=O)C1CC1
IC50 [1]: 33 nM | T1/2 [2]: 1.2 h

Structure (SMILES): CCN(Cc1cc(C(F)(F)F)ccc1-c1nn(CC(=O)O)c2cc(F)ccc12)C(=O)C1CC1
IC50 [1]: 127 nM

Structure (SMILES): CCN(Cc1cc(C(F)(F)F)ccc1-c1cn(CC(=O)O)c2cccnc12)C(=O)C1CC1
IC50 [1]: 20 nM | T1/2 [2]: 1.9 h

Structure (SMILES): CCN(Cc1cc(C(F)(F)F)ccc1-c1nn(CC(=O)O)c2cccc(OC)c12)C(=O)C1CC1
IC50 [1]: 23 nM | T1/2 [2]: 2.4 h

Structure (SMILES): CCN(Cc1cc(C(F)(F)F)ccc1-n1cc(CC(=O)O)c2ccc(C)cc21)C(=O)C1CC1
IC50 [1]: 119 nM

The remaining lines, values ahead:

IC50 [1]: 4 nM | T1/2 [2]: 7 h
Structure (SMILES): COCCN(Cc1cc(C(F)(F)F)ccc1-n1cc(CC(=O)O)c2ccc(C)nc21)C(=O)C1CC1

IC50 [1]: 9 nM | T1/2 [2]: 21 h
Structure (SMILES): CCN(Cc1cc(C(F)(F)F)ccc1-n1cc(CC(=O)O)c2ccc(C)nc21)C(=O)COC

IC50 [1]: 6 nM | T1/2 [2]: 24 h
Structure (SMILES): CCN(Cc1cc(C(F)(F)F)ccc1-n1cc(CC(=O)O)c2ccc(C)nc21)C(=O)Cc1ccccc1

IC50 [1]: 10 nM | T1/2 [2]: 21 h | half-life [3]: 4.9 h | Cmax [4]: 1610 ng/mL | clearance [5]: 14 mL/min/kg | AUC(0-inf) [6]: 1220 ng·h/mL | Vd [7]: 1.8 L/kg | MRT [8]: 2.3 h | bioavailability [9]: 27%
Structure (SMILES): CCN(Cc1cc(C(F)(F)F)ccc1-n1cc(CC(=O)O)c2ccc(C)nc21)C(=O)C1CC1

IC50 [1]: 5 nM | T1/2 [2]: 26 h
Structure (SMILES): CCN(Cc1cc(C(F)(F)F)ccc1-n1cc(CC(=O)O)c2ccc(C)nc21)C(=O)NCc1ccccc1

IC50 [1]: 5.9 nM | T1/2 [2]: 24 h
Structure (SMILES): CCN(Cc1cc(C)ccc1-n1cc(CC(=O)O)c2ccc(C)nc21)C(=O)C1CC1

IC50 [1]: 11 nM | T1/2 [2]: 27 h | half-life [3]: 6.6 h | Cmax [4]: 1900 ng/mL | clearance [5]: 16 mL/min/kg | AUC(0-inf) [6]: 1070 ng·h/mL | Vd [7]: 3.2 L/kg | MRT [8]: 3.4 h
Structure (SMILES): CCN(Cc1ccccc1-n1cc(CC(=O)O)c2ccc(C(F)(F)F)cc21)C(=O)C1CC1

IC50 [1]: 4.7 nM | T1/2 [2]: 11 h
Structure (SMILES): CCN(Cc1cc(F)ccc1-n1cc(CC(=O)O)c2ccc(C)nc21)C(=O)C1CC1

IC50 [1]: 10 nM | T1/2 [2]: 9.9 h
Structure (SMILES): CCc1ccc2c(CC(=O)O)cn(-c3ccc(C(F)(F)F)cc3CN(CC)C(=O)C3CC3)c2n1

IC50 [1]: 6.3 nM | T1/2 [2]: 3.2 h
Structure (SMILES): CCN(Cc1cc(C(F)(F)F)ccc1-c1nn(CC(=O)O)c2cccc(Cl)c12)C(=O)C1CC1

IC50 [1]: 4.2 nM | T1/2 [2]: 26 h
Structure (SMILES): CCN(Cc1cc(C(F)(F)F)ccc1-c1cc(CC(=O)O)c2ccc(C)nn12)C(=O)C1CC1

IC50 [1]: 11 nM | T1/2 [2]: 29 h
Structure (SMILES): CCN(Cc1cc(C(F)(F)F)ccc1-n1cc(CC(=O)O)c2ccc(C(F)F)nc21)C(=O)C1CC1

IC50 [1]: 4 nM | T1/2 [2]: 40 h
Structure (SMILES): Cc1ccc2c(CC(=O)O)cn(-c3ccc(C(F)(F)F)cc3CN(CCOc3ccccc3)C(=O)C3CC3)c2n1

IC50 [1]: 5.8 nM | T1/2 [2]: 16 h
Structure (SMILES): CCN(Cc1cc(OC(F)(F)F)ccc1-n1cc(CC(=O)O)c2ccc(C)nc21)C(=O)C1CC1

IC50 [1]: 5.2 nM | T1/2 [2]: 31 h
Structure (SMILES): CCN(Cc1cc(Cl)ccc1-n1cc(CC(=O)O)c2ccc(C)nc21)C(=O)C1CC1

IC50 [1]: 9 nM | T1/2 [2]: 1.8 h
Structure (SMILES): CCN(Cc1cc(C(F)(F)F)ccc1-c1nn(CC(=O)O)c2ccc(C)cc12)C(=O)C1CC1

IC50 [1]: 4.3 nM | T1/2 [2]: 5 h
Structure (SMILES): CCN(Cc1cc(C(F)(F)F)ccc1-c1nn(CC(=O)O)c2cccc(F)c12)C(=O)C1CC1

IC50 [1]: 10 nM | T1/2 [2]: 24 h
Structure (SMILES): CCN(Cc1cc(C(F)(F)F)ccc1-n1cc(CC(=O)O)c2ccc(C)nc21)C(=O)C1CCC1

IC50 [1]: 7 nM | T1/2 [2]: 22 h
Structure (SMILES): CCN(Cc1cc(C(F)(F)F)ccc1-n1cc(CC(=O)O)c2ccc(C)nc21)C(=O)CC1CC1
